Assay results from US10710986B2, “PD-1/PD-L1 inhibitors” (Gilead Sciences, Inc., priority 2018, dated 2020).
pIC50: −log10 of the molar value.

Molecular target: PD-1/PD-L1 (Homo sapiens (Human), UniProt Q9NZQ7)
Test: PD-1/PD-L1 biochemical protein-protein interaction assay (ALPHA)
Settings: 0.3 nM His tagged PD-L1, 2.5 nM biotinylated Fc-PD-1, 60 minutes at 25° C., read-out: IC50 PD-L1-PD1

Chain of PD-1/PD-L1 (Q9NZQ7 19-238): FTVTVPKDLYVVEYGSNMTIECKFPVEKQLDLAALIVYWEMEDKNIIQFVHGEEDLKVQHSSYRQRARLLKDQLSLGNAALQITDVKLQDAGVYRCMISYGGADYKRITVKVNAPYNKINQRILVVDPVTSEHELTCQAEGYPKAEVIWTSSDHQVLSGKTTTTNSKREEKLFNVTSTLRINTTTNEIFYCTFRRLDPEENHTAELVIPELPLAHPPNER

Row | SMILES | pIC50
1 | COc1nc(-c2cccc(-c3cccc(-c4cnc(CN[C@H]5C[C@@H](OC(F)F)C5)c(OC)n4)c3Cl)c2Cl)cnc1CNC[C@@H]1CCC(=O)N1 [compound 536] | 9.56
2 | COc1nc(-c2cccc(-c3cccc(-c4cnc(CN5CCC6(CCC(=O)N6)C5)c(OC)n4)c3Cl)c2Cl)cnc1CN1CCC2(CCC(=O)N2)C1 (centres unmarked) [compound 537] | 10.19
3 | COc1nc(-c2cccc(-c3cccc(-c4cnc(CNCC[C@@H]5CNC(=O)C5)c(OC)n4)c3Cl)c2Cl)cnc1CNCC[C@@H]1CNC(=O)C1 [compound 538] | 9.70
4 | COc1nc(-c2cccc(-c3cccc(-c4cnc(CNC[C@@H]5CCC(=O)N5)c(OC)n4)c3Cl)c2Cl)cnc1CNCC[C@@H]1CNC(=O)C1 [compound 539] | 9.77
5 | COc1nc(-c2cccc(-c3cccc(-c4cnc(CNCC[C@H]5CNC(=O)C5)c(OC)n4)c3Cl)c2Cl)cnc1CNCC[C@H]1CNC(=O)C1 [compound 540] | 10.14
6 | COc1nc(-c2cccc(-c3cccc(-c4cnc(CNC[C@@H]5CCC(=O)N5)c(OC)n4)c3Cl)c2Cl)cnc1CNCC[C@H]1CNC(=O)C1 [compound 541] | 10.03
7 | COc1nc(-c2cccc(-c3cccc(-c4cnc(CN5CCC[C@@H]6C(=O)NC[C@@H]65)c(OC)n4)c3Cl)c2Cl)cnc1CNC[C@@H]1CCC(=O)N1 [compound 542] | 9.41
8 | COc1nc(-c2cccc(-c3cccc(-c4cnc(CNC[C@@H]5CCC(=O)N5)c(OC)n4)c3Cl)c2Cl)cnc1CNCC1CCN(C)C1=O (some centres unmarked) [compound 543] | 9.70
9 | COc1nc(-c2cccc(-c3cccc(-c4cnc(CNCC56CC(O)(C5)C6)c(OC)n4)c3Cl)c2Cl)cnc1CNCC12CC(O)(C1)C2 [compound 544] | 9.62
10 | COc1nc(-c2cccc(-c3cccc(-c4cnc(CNCC56CC(O)(C5)C6)c(OC)n4)c3Cl)c2Cl)cnc1CNC[C@@H]1CCC(=O)N1 [compound 545] | 9.67
11 | COc1nc(-c2cccc(-c3cccc(-c4cnc(CNCC5CN(S(C)(=O)=O)C5)c(OC)n4)c3Cl)c2Cl)cnc1CNCC1CN(S(C)(=O)=O)C1 [compound 546] | 10.05
12 | COc1nc(-c2cccc(-c3cccc(-c4cnc(CNC[C@@H]5CCC(=O)N5)c(OC)n4)c3Cl)c2Cl)cnc1CNCC1CN(S(C)(=O)=O)C1 [compound 547] | 10.19
13 | COc1nc(-c2cccc(-c3cccc(-c4cnc(CN[C@@](C)(CO)C(=O)O)c(OC)n4)c3Cl)c2Cl)cnc1CNC[C@@H]1CCC(=O)N1 [compound 553] | 9.93
14 | COc1nc(-c2cccc(-c3cccc(-c4cnc(CNC5CS(=O)(=O)C5)c(OC)n4)c3Cl)c2Cl)cnc1CNC[C@@H]1CCC(=O)N1 [compound 560] | 9.84
15 | COc1nc(-c2cccc(-c3cccc(-c4cnc(CNC[C@H]5C[C@@](C)(O)C5)c(OC)n4)c3Cl)c2Cl)cnc1CNC[C@H]1C[C@@](C)(O)C1 [compound 562] | 9.82
16 | COc1nc(-c2cccc(-c3cccc(-c4cnc(CNC[C@H]5C[C@](C)(O)C5)c(OC)n4)c3Cl)c2Cl)cnc1CNC[C@H]1C[C@](C)(O)C1 [compound 563] | 9.37
17 | COc1nc(-c2cccc(-c3cccc(-c4cnc(CN[C@H]5C[C@](C)(O)C5)c(OC)n4)c3Cl)c2Cl)cnc1CNC[C@@H]1CCC(=O)N1 [compound 564] | 9.70

Row | SMILES | pIC50
18 | COc1nc(-c2cccc(-c3cccc(-c4cnc(CNC[C@H]5C[C@H](OC)C5)c(OC)n4)c3Cl)c2Cl)cnc1CNC[C@@H]1CCC(=O)N1 [compound 565] | 9.37
19 | COc1nc(-c2cccc(-c3cccc(-c4cnc(CNC[C@H]5C[C@@](C)(O)C5)c(OC)n4)c3Cl)c2Cl)cnc1CNC[C@@H]1CCC(=O)N1 [compound 566] | 9.89
20 | COc1nc(-c2cccc(-c3cccc(-c4cnc(CNC[C@H]5C[C@](C)(O)C5)c(OC)n4)c3Cl)c2Cl)cnc1CNC[C@@H]1CCC(=O)N1 [compound 567] | 10.19
21 | COc1nc(-c2cccc(-c3cccc(-c4cnc(CNC[C@H]5CCS(=O)(=O)N5)c(OC)n4)c3Cl)c2Cl)cnc1CNC[C@H]1CCS(=O)(=O)N1 [compound 568] | 9.53
22 | COc1nc(-c2cccc(-c3cccc(-c4cnc(CNC[C@@H]5CCS(=O)(=O)N5)c(OC)n4)c3Cl)c2Cl)cnc1CNC[C@@H]1CCS(=O)(=O)N1 [compound 569] | 9.23
23 | COc1nc(-c2cccc(-c3cccc(-c4cnc(CNCCCN5CCCS5(=O)=O)c(OC)n4)c3Cl)c2Cl)cnc1CNCCCN1CCCS1(=O)=O [compound 570] | 9.38
24 | CNS(=O)(=O)CCNCc1ncc(-c2cccc(-c3cccc(-c4cnc(CNC[C@@H]5CCC(=O)N5)c(OC)n4)c3Cl)c2Cl)nc1OC [compound 572] | 10.19
25 | COc1nc(-c2cccc(-c3cccc(-c4cnc(CNC[C@@H]5CCC(=O)N5)c(OC)n4)c3Cl)c2Cl)cnc1CNCCN1CCCS1(=O)=O [compound 573] | 10.05
26 | COc1nc(-c2cccc(-c3cccc(-c4cnc(CNCCNS(C)(=O)=O)c(OC)n4)c3Cl)c2Cl)cnc1CNCCNS(C)(=O)=O [compound 575] | 10.19
27 | COc1nc(-c2cccc(-c3cccc(-c4cnc(CNCC5CCS(=O)(=O)N5)c(OC)n4)c3Cl)c2Cl)cnc1CNCC1CCS(=O)(=O)N1 (centres unmarked) [compound 576] | 9.19
28 | COc1nc(-c2cccc(-c3cccc(-c4cnc(CNC[C@@H]5CCC(=O)N5)c(OC)n4)c3Cl)c2Cl)cnc1CNCCCS(N)(=O)=O [compound 577] | 10.19
29 | CCNC(=O)CNCc1ncc(-c2cccc(-c3cccc(-c4cnc(CNC[C@@H]5CCC(=O)N5)c(OC)n4)c3Cl)c2Cl)nc1OC [compound 578] | 9.74
30 | COc1nc(-c2cccc(-c3cccc(-c4cnc(CNC[C@H]5CCOC5)c(OC)n4)c3Cl)c2Cl)cnc1CNC[C@H]1CCOC1 [compound 579] | 9.11
31 | COc1nc(-c2cccc(-c3cccc(-c4cnc(CN(C)C[C@@H]5CCC(=O)N5)c(OC)n4)c3Cl)c2Cl)cnc1CNC[C@@H]1CCC(=O)N1 [compound 580] | 9.44
32 | COc1nc(-c2cccc(-c3cccc(-c4cnc(CNC[C@@H]5CCC(=O)N5)c(OC)n4)c3Cl)c2Cl)cnc1CNCC(=O)NC(C)C [compound 581] | 9.70
33 | COc1nc(-c2cccc(-c3cccc(-c4cnc(C5=NCCN5)c(OC)n4)c3Cl)c2Cl)ccc1CN [compound 582] | 9.72
34 | COc1nc(-c2cccc(-c3cccc(-c4cnc(CN[C@H](C5CC5)[C@@H]5CCC(=O)N5)c(OC)n4)c3Cl)c2Cl)cnc1CN[C@H](C1CC1)[C@@H]1CCC(=O)N1 [compound 590] | 9.88

Continued, values first:

Row | pIC50 | SMILES
35 | 9.18 | COc1nc(-c2cccc(-c3cccc(-c4cnc(CN5CC(O)(C6CC6)C5)c(OC)n4)c3Cl)c2Cl)cnc1CN1CC(O)(C2CC2)C1 [compound 548]
36 | 9.71 | COc1nc(-c2cccc(-c3cccc(-c4cnc(CN5CC(O)(C6CC6)C5)c(OC)n4)c3Cl)c2Cl)cnc1CNC[C@@H]1CCC(=O)N1 [compound 549]
37 | 9.23 | C#CC1(O)CN(Cc2ncc(-c3cccc(-c4cccc(-c5cnc(CN6CC(O)(C#C)C6)c(OC)n5)c4Cl)c3Cl)nc2OC)C1 [compound 550]
38 | 9.33 | C#CC1(O)CN(Cc2ncc(-c3cccc(-c4cccc(-c5cnc(CNC[C@@H]6CCC(=O)N6)c(OC)n5)c4Cl)c3Cl)nc2OC)C1 [compound 551]
39 | 9.84 | COc1nc(-c2cccc(-c3cccc(-c4cnc(CN5CC[C@@H](C(=O)O)C5)c(OC)n4)c3Cl)c2Cl)cnc1CNC[C@@H]1CCC(=O)N1 [compound 552]
40 | 10.00 | CNC(=O)NC1CN(Cc2ncc(-c3cccc(-c4cccc(-c5cnc(CN6CC(NC(=O)NC)C6)c(OC)n5)c4Cl)c3Cl)nc2OC)C1 [compound 554]
41 | 9.46 | CNC(=O)C1CN(Cc2ncc(-c3cccc(-c4cccc(-c5cnc(CN6CC(C(=O)NC)C6)c(OC)n5)c4Cl)c3Cl)nc2OC)C1 [compound 555]
42 | 9.75 | COc1nc(-c2cccc(-c3cccc(-c4cnc(CN5CC(NS(C)(=O)=O)C5)c(OC)n4)c3Cl)c2Cl)cnc1CN1CC(NS(C)(=O)=O)C1 [compound 556]
43 | 10.05 | CNC(=O)NC1CN(Cc2ncc(-c3cccc(-c4cccc(-c5cnc(CNC[C@@H]6CCC(=O)N6)c(OC)n5)c4Cl)c3Cl)nc2OC)C1 [compound 557]
44 | 10.19 | CNC(=O)C1CN(Cc2ncc(-c3cccc(-c4cccc(-c5cnc(CNC[C@@H]6CCC(=O)N6)c(OC)n5)c4Cl)c3Cl)nc2OC)C1 [compound 558]
45 | 9.92 | COc1nc(-c2cccc(-c3cccc(-c4cnc(CN5CC(NS(C)(=O)=O)C5)c(OC)n4)c3Cl)c2Cl)cnc1CNC[C@@H]1CCC(=O)N1 [compound 559]
46 | 9.79 | COc1nc(-c2cccc(-c3cccc(-c4cnc(CN[C@H]5C[C@](C)(O)C5)c(OC)n4)c3Cl)c2Cl)cnc1CN[C@H]1C[C@](C)(O)C1 [compound 561]
47 | 10.19 | COc1nc(-c2cccc(-c3cccc(-c4cnc(CN5CC(NS(N)(=O)=O)C5)c(OC)n4)c3Cl)c2Cl)cnc1CN1CC(NS(N)(=O)=O)C1 [compound 571]
48 | 9.88 | COc1nc(-c2cccc(-c3cccc(-c4cnc(CN5CC(S(C)(=O)=O)C5)c(OC)n4)c3Cl)c2Cl)cnc1CNC[C@@H]1CCC(=O)N1 [compound 574]
49 | 10.19 | COc1nc(-c2cccc(-c3cccc(-c4cnc(CN)c(OC)n4)c3Cl)c2Cl)ccc1C1=NCCN1 [compound 583]
50 | 9.93 | COc1nc(-c2cccc(-c3cccc(-c4cnc(C5=NCCN5)c(OC)n4)c3Cl)c2Cl)cnc1CN [compound 584]
51 | 9.35 | COc1nc(-c2cccc(-c3cccc(-c4cnc(CN5CC[C@H](C(=O)O)C5)c(OC)n4)c3Cl)c2Cl)cnc1CN [compound 585]
52 | 9.54 | COc1nc(-c2cccc(-c3cccc(-c4cnc(CN5CC[C@H](O)C5)c(OC)n4)c3Cl)c2Cl)cnc1CN [compound 586]
53 | 9.29 | COc1nc(-c2cccc(-c3cccc(-c4cnc(CN5CC[C@@H](O)C5)c(OC)n4)c3Cl)c2Cl)cnc1CN [compound 587]
54 | 9.77 | COc1nc(-c2cccc(-c3cccc(-c4cnc(CNCC5(O)COC5)c(OC)n4)c3Cl)c2Cl)cnc1CNCC1(O)COC1 [compound 588]
55 | 9.54 | COc1nc(-c2cccc(-c3cccc(-c4cnc(CNCC5(O)COC5)c(OC)n4)c3Cl)c2Cl)cnc1CNC[C@@H]1CCC(=O)N1 [compound 589]
56 | 9.86 | COc1nc(-c2cccc(-c3cccc(-c4cnc(CN5CC6(CNC(=O)C6)C5)c(OC)n4)c3Cl)c2Cl)cnc1CN [compound 591]
